Values joined by “and” are separate entries in the source; they are usually repeats but may differ in a detail not shown here. Identical values can stand only once.
Conditions: for vapor or sublimation pressure: Closed cell (Static) method; for mass density: Fluid (supercritical or subcritical phases), Bellows volumetry

CC(C)C [2-methylpropane]
Conditions	Critical pressure [kPa]	Critical temperature [K]	mass density	vapor or sublimation pressure
310 K, Liquid	–	–	–	489.5 kPa [middle of 6 runs]
405 K, 3464.7 kPa	–	–	185 kg/m3	–
405 K, 3467.3 kPa	–	–	199.9 kg/m3 and 200 kg/m3	–
405 K, 3468 kPa	–	–	200 kg/m3	–
405 K, 3468.4 kPa	–	–	200 kg/m3	–
405 K, 3469.9 kPa	–	–	264.9 kg/m3	–
405 K, Liquid	–	–	–	3468.8 kPa [middle of 6 runs]
406 K, 3523.7 kPa	–	–	184.9 kg/m3	–
406 K, 3525.7 kPa	–	–	199.9 kg/m3	–
406 K, 3528.1 kPa	–	–	264.9 kg/m3	–
406 K, Liquid	–	–	–	3527 kPa [middle of 6 runs]
407 K, 3582.1 kPa	–	–	185.4 kg/m3	–
407 K, 3585 kPa	–	–	200.3 kg/m3	–
407 K, Liquid	–	–	–	3585.5 kPa [middle of 7 runs]
407.5 K, 3613.8 kPa	–	–	185 kg/m3	–
407.5 K, 3617.5 kPa	–	–	199.9 kg/m3	–
407.5 K, 3617.7 kPa	–	–	200.4 kg/m3	–
407.5 K, 3620.6 kPa	–	–	265 kg/m3	–
407.5 K, Liquid	–	–	–	3619 kPa [middle of 6 runs]
407.89 K, 3632.3 kPa	–	–	184.9 kg/m3	–
407.89 K, 3637.6 kPa	–	–	200.1 kg/m3	–
407.89 K, 3640.5 kPa	–	–	240 kg/m3	–
407.89 K, 3640.6 kPa	–	–	250 kg/m3	–
407.89 K, 3640.8 kPa	–	–	250.2 kg/m3	–
407.89 K, 3640.9 kPa	–	–	241.4 kg/m3	–
407.89 K, 3641.3 kPa	–	–	250.5 kg/m3	–
407.89 K, 3644.5 kPa	–	–	263.7 kg/m3	–
407.89 K, 3644.6 kPa	–	–	264.9 kg/m3	–
408 K, 3635.8 kPa	–	–	184.1 kg/m3	–
408 K, 3638.1 kPa	–	–	184.9 kg/m3	–
408 K, 3643.7 kPa	–	–	200 kg/m3	–
408 K, 3644.2 kPa	–	–	200.4 kg/m3	–
408 K, 3645.6 kPa	–	–	220 kg/m3	–
408 K, 3646.4 kPa	–	–	227.5 kg/m3	–
408 K, 3646.6 kPa	–	–	240 kg/m3	–
408 K, 3646.8 kPa	–	–	220.1 kg/m3	–
408 K, 3647.4 kPa	–	–	249.9 kg/m3	–
408 K, 3652.4 kPa	–	–	265.5 kg/m3	–
409 K, 3692.1 kPa	–	–	184.7 kg/m3	–
409 K, 3692.8 kPa	–	–	184.9 kg/m3	–
409 K, 3702.2 kPa	–	–	200 kg/m3	–
409 K, 3702.8 kPa	–	–	200.4 kg/m3	–
409 K, 3708.3 kPa	–	–	219.8 kg/m3	–
409 K, 3708.5 kPa	–	–	219.9 kg/m3	–
409 K, 3708.9 kPa	–	–	220.4 kg/m3	–
409 K, 3709.7 kPa	–	–	224.2 kg/m3	–
409 K, 3710.5 kPa	–	–	227.4 kg/m3	–
409 K, 3713.6 kPa	–	–	239.9 kg/m3	–
409 K, 3717.7 kPa	–	–	250 kg/m3	–
409 K, 3718.4 kPa	–	–	250.4 kg/m3	–
409 K, 3729 kPa	–	–	265 kg/m3	–
410 K, 3745.3 kPa	–	–	185 kg/m3	–
410 K, 3757.5 kPa	–	–	200 kg/m3	–
410 K, 3758.2 kPa	–	–	200 kg/m3	–
410 K, 3764.3 kPa	–	–	210 kg/m3	–
410 K, 3769.4 kPa	–	–	220 kg/m3	–
410 K, 3772.2 kPa	–	–	227.4 kg/m3	–
410 K, 3772.5 kPa	–	–	228.1 kg/m3	–
410 K, 3779.4 kPa	–	–	240 kg/m3	–
410 K, 3785.9 kPa	–	–	250 kg/m3	–
410 K, 3786.3 kPa	–	–	250.4 kg/m3	–
410 K, 3802.3 kPa	–	–	265 kg/m3	–
410 K, 3802.8 kPa	–	–	265.2 kg/m3	–
Liquid, Direct measurement	3639	–	–	–
Liquid, Visual observation in an unstirred cell	–	407.88	–	–

Reference: the NIST ThermoML archive (doi:10.1016/j.jct.2006.03.008)
